The structures appear in SMILES notation. Where a name gives a salt, the structure may show the parent alone.

In general, melting point refers to the temperature, or range, at which the solid turns liquid. With `CC1CC[C@@H](C(=O)Nc2cc(C(F)(F)F)ccc2-c2cc(Oc3cccc4ccc(N)nc34)ncn2)N1` (mixture of isomers) [Example 48, (2S,5R,S)-N-(2-(6-(2-Aminoquinolin-8-yloxy)pyrimidin-4-yl)-5-(trifluoromethyl)phenyl)-5-methylpyrrolidine-2-carboxamide], the melting point fell in the range of 162.9 to 164 °C.
For the molecule `CC(C)CN1CCC[C@H]1CN(C)c1nc(C(F)(F)F)ccc1-c1cc(Oc2cccc3sc(N)nc23)ncn1` [Example 28], the melting point was in the range of 93.2 to 96.8 °C.
On to `CC(C)CN1CCCCC1CN(C)c1nc(C(F)(F)F)ccc1-c1cc(Oc2cccc3sc(N)nc23)ncn1` (stereo not drawn) [Example 24, 4-(6-(2-(((1-Isobutylpiperidin-2-yl)methyl)(methyl)amino)-6-(trifluoromethyl)pyridin-3-yl)pyrimidin-4-yloxy)benzo[d]thiazol-2-amine], for which the melting point lay within 98.9 to 101.9 °C.
In the case of `CC(=O)Nc1nc2c(Oc3cc(-c4ccc(C(F)(F)F)cc4NC(=O)C4CCCCN4CC(C)C)ncn3)cccc2s1` (stereo not drawn) [Example 51, N-(2-(6-(2-Acetamidobenzo[d]thiazol-4-yloxy)pyrimidin-4-yl)-5-(trifluoromethyl)phenyl)-1-isobutylpiperidine-2-carboxamide] it was 153.4 to 154.9 °C; in that of `CC(=O)Nc1nc2c(Oc3cc(-c4ccc(C(F)(F)F)nc4NC4CCN(C(C)C)C4)ncn3)cccc2s1` (stereo not drawn) [Example 4, N-(4-(6-(2-(1-Isopropylpyrrolidin-3-ylamino)-6-(trifluoromethyl)pyridin-3-yl)pyrimidin-4-yloxy)benzo[d]thiazol-2-yl)acetamide], 140 to 141 °C.
The result for `CC(C)CN1CCCCC1C(=O)Nc1cc(C(F)(F)F)ccc1-c1cc(Oc2cccc3ccc(N)nc23)ncn1` (stereo not drawn) reads 111.1 to 113.9 °C; that for `CC(C)CN1CCCCC1C(C)(C)Nc1nc(C(F)(F)F)ccc1-c1cc(Oc2cccc3sc(N)nc23)ncn1` (stereo not drawn) [Example 5, 4-(6-(2-(2-(1-Isobutylpiperidin-2-yl)propan-2-ylamino)-6-(trifluoromethyl)pyridin-3-yl)pyrimidin-4-yloxy)benzo[d]thiazol-2-amine], 166 to 170 °C; that for `CC(C)CN1CCCCC1CNc1nc(C(F)(F)F)ccc1-c1cc(Oc2cccc3sc(N)nc23)ncn1` (stereo not drawn) [Example 26], 118 to 118.2 °C.
In the case of `CC(=O)Nc1nc2c(Oc3cc(-c4ccc(C(F)(F)F)nc4NCC4CCCCN4CC(C)C)ncn3)cccc2s1` (racemic) [Example 31, N-(4-(6-(2-(((R,S)-1-isobutylpiperidin-2-yl)methylamino)-6-(trifluoromethyl)pyridin-3-yl)pyrimidin-4-yloxy)benzo[d]thiazol-2-yl)acetamide] it was 121.7 to 121.9 °C; in that of `CC(=O)Nc1nc2c(Oc3cc(-c4ccc(C(F)(F)F)cc4NC(=O)[C@@H]4CCN4C(C)C)ncn3)cccc2s1` [Example 37, (2S)-N-(2-(6-(2-Acetamidobenzo[d]thiazol-4-yloxy)pyrimidin-4-yl)-5-(trifluoromethyl)phenyl)-1-isopropylazetidine-2-carboxamide], 198.8 to 199.4 °C; in that of `CC(=O)Nc1nc2c(Oc3cc(-c4ccc(C(F)(F)F)cc4NC(=O)[C@@H]4CCN4CC(C)C)ncn3)cccc2s1` [Example 38, (2S)-N-(2-(6-(2-Acetamidobenzo[d]thiazol-4-yloxy)pyrimidin-4-yl)-5-(trifluoromethyl)phenyl)-1-isobutylazetidine-2-carboxamide], 174.4 to 174.9 °C.
On to `CC1(C)CC(Nc2nc(C(F)(F)F)ccc2-c2cc(Oc3cccc4sc(N)nc34)ncn2)CC(C)(C)N1` (as salt: trifluoroacetic acid salt) [Example 35, 4-(6-(2-(2,2,6,6-Tetramethylpiperidin-4-ylamino)-6-(trifluoromethyl)pyridin-3-yl)pyrimidin-4-yloxy)benzo[d]thiazol-2-amine trifluoroacetic acid salt], for which the melting point fell in the range of 264 to 265.1 °C.
The result for `CC(C)CN1CCC[C@H]1CNc1nc(C(F)(F)F)ccc1-c1cc(Oc2cccc3sc(N)nc23)ncn1` [Example 25] reads 198 °C (dec.); that for `CC(=O)Nc1nc2c(Oc3cc(-c4ccc(C(F)(F)F)cc4NC(=O)C4(C)CCCCN4CC(C)C)ncn3)cccc2s1` (stereo not drawn) (as salt: trifluoroacetic acid salt) [Example 44, N-(2-(6-(2-Acetamidobenzo[d]thiazol-4-yloxy)pyrimidin-4-yl)-5-(trifluoromethyl)phenyl)-1-isobutyl-2-methylpiperidine-2-carboxamide trifluoroacetic acid salt], under 80 °C; that for `CC(=O)Nc1nc2c(Oc3cc(-c4ccc(C(F)(F)F)cc4NC(=O)C4(C)CCCCN4)ncn3)cccc2s1` (stereo not drawn) [Example 43, N-(2-(6-(2-Acetamidobenzo[d]thiazol-4-yloxy)pyrimidin-4-yl)-5-(trifluoromethyl)phenyl)-2-methylpiperidine-2-carboxamide], 146.4 to 148.8 °C.
For the molecule `CC(=O)Nc1nc2c(Oc3cc(-c4ccc(C(F)(F)F)cc4NC(=O)C4CCCCN4C(C)C)ncn3)cccc2s1` (stereo not drawn) [Example 50, N-(2-(6-(2-Acetamidobenzo[d]thiazol-4-yloxy)pyrimidin-4-yl)-5-(trifluoromethyl)phenyl)-1-isopropylpiperidine-2-carboxamide], the melting point was 260 °C (dec.).
The result for `CC(=O)Nc1nc2c(Oc3cc(-c4ccc(C(F)(F)F)nc4NC[C@@H]4CCCN4CC(C)C)ncn3)cccc2s1` [Example 30] reads 105.8 to 107.3 °C.
In the case of `CC(=O)Nc1nc2c(Oc3cc(-c4ccc(C(F)(F)F)cc4NCc4cncn4C)ncn3)cccc2s1` [Example 55, N-(4-(6-(2-((1-Methyl-1H-imidazol-5-yl)methylamino)-4-(trifluoromethyl)-phenyl)pyrimidin-4-yloxy)benzo[d]thiazol-2-yl)acetamide] it was 263 to 265.2 °C.
In the case of `CC(=O)Nc1nc2c(Oc3cc(-c4ccc(C(F)(F)F)cc4NC(=O)C4CCCCN4CC4CC4)ncn3)cccc2s1` (stereo not drawn) [Example 49, N-(2-(6-(2-Acetamidobenzo[d]thiazol-4-yloxy)pyrimidin-4-yl)-5-(trifluoromethyl)phenyl)-1-(cyclopropylmethyl)piperidine-2-carboxamide] it was 212.3 to 213.5 °C.
On to `CC(C)CN1CCCCC1CNc1nc(C(F)(F)F)ccc1-c1cc(Oc2cccc3[nH]c(=O)c(N)nc23)ncn1` (stereo not drawn) [Example 6], for which the melting point lay in the range of 228 to 229 °C.
For `CC(C)N1CCCCC1CNc1nc(C(F)(F)F)ccc1-c1cc(Oc2cccc3sc(N)nc23)ncn1` (stereo not drawn) [Example 27], the melting point lay in the range of 211.3 to 213 °C.
In turn, `CC(=O)Nc1nc2c(Oc3cc(-c4ccc(C(F)(F)F)nc4NCC4CCCCN4C(C)C)ncn3)cccc2s1` (stereo not drawn) [Example 32] yielded a melting point of 159.3 to 162 °C.
The result for `CC(=O)Nc1nc2c(Oc3cc(-c4ccc(C(F)(F)F)cc4NCc4cncn4Cc4ccccc4)ncn3)cccc2s1` [Example 54, N-(4-(6-(2-((1-Benzyl-1H-imidazol-5-yl)methylamino)-4-(trifluoromethyl)-phenyl)pyrimidin-4-yloxy)benzo[d]thiazol-2-yl)acetamide] reads 264 to 264.1 °C; that for `CC(=O)Nc1nc2c(Oc3cc(-c4ccc(C(F)(F)F)nc4NC4CC(C)(C)NC(C)(C)C4)ncn3)cccc2s1` (as salt: trifluoroacetic acid salt) [Example 36, N-(4-(6-(2-(2,2,6,6-Tetramethylpiperidin-4-ylamino)-6-(trifluoromethyl)-pyridin-3-yl)pyrimidin-4-yloxy)benzo[d]thiazol-2-yl)acetamide trifluoroacetic acid salt], 253.4 to 254.1 °C; that for `CC(C)CN1CCCCC1C(=O)Nc1cc(C(F)(F)F)ccc1-c1cc(Oc2cccc3[nH]c(=O)c(N)nc23)ncn1` (stereo not drawn) [Example 42, N-(2-(6-(3-Amino-2-oxo-1,2-dihydroquinoxalin-5-yloxy)pyrimidin-4-yl)-5-(trifluoromethyl)phenyl)-1-isobutylpiperidine-2-carboxamide], over 250 °C.
In the case of `CC(=O)Nc1nc2c(Oc3cc(-c4ccc(C(F)(F)F)nc4NC4CCN(CC(C)C)C4)ncn3)cccc2s1` (stereo not drawn) [Example 3, N-(4-(6-(2-(1-Isobutylpyrrolidin-3-ylamino)-6-(trifluoromethyl)pyridin-3-yl)pyrimidin-4-yloxy)benzo[d]thiazol-2-yl)acetamide] it was 138 to 139 °C; in that of `CC(=O)Nc1nc2c(Oc3cc(-c4ccc(C(F)(F)F)nc4N(C)CC4CCCCN4CC(C)C)ncn3)cccc2s1` (stereo not drawn) [Example 29, N-(4-(6-(2-(((1-isobutylpiperidin-2-yl)methyl)(methyl)amino)-6-(trifluoromethyl)pyridin-3-yl)pyrimidin-4-yloxy)benzo[d]thiazol-2-yl)acetamide], 123.2 to 125.4 °C.
